Activity calls are given as the source filed them. The calls are words filed in the database; no cut-off is given here.
What was measured:
[1] = molecular target: T1, Protein cereblon/E3 ubiquitin-protein ligase RING2 (Homo sapiens, UniProt Q96SW2+Q99496); assay: PROTAC activity at CRBN/RING1B in human K562 cells assessed as degradation of RING1B protein expression at 10 uM incubated for 20 hrs in presence of EED226 by Western blotting analysis; type: cell-based
Target sequence in this assay (Q96SW2 whole entry): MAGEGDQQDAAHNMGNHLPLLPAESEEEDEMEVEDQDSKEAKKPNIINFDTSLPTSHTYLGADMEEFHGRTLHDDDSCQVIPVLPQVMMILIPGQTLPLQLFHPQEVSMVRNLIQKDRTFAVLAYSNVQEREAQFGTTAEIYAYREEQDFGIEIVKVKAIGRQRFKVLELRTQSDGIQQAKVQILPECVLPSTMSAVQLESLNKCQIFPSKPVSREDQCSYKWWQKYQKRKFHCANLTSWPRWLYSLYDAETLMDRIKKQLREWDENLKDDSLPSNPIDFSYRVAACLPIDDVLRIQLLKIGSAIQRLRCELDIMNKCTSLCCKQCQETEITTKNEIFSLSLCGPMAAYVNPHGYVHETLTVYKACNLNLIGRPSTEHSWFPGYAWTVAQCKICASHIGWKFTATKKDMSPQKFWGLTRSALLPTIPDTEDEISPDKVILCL
Target sequence in this assay (Q99496 2-336 partner limits assumed): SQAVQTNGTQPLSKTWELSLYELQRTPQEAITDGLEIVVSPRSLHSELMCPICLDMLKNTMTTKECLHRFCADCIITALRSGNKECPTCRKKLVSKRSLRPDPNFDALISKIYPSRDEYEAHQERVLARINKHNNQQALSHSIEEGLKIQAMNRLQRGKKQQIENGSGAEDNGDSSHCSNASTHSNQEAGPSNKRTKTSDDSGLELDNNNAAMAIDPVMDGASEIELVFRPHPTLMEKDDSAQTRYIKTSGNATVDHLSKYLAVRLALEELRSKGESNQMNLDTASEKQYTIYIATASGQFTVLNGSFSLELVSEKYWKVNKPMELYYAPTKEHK

[2] = molecular target: T1, Protein cereblon/E3 ubiquitin-protein ligase RING2; assay: PROTAC activity at CRBN/RING1B in human MDA-MB-468 cells assessed as degradation of RING1B protein expression at 5 uM incubated for 24 hrs by Western blotting analysis; type: cell-based
Target sequence in this assay (Q96SW2 whole entry): as the sequence (Q96SW2 whole entry) above
Target sequence in this assay (Q99496 2-336 partner limits assumed): as the sequence (Q99496 2-336 partner limits assumed) above

[3] = molecular target: T1, Protein cereblon/E3 ubiquitin-protein ligase RING2; assay: PROTAC activity at CRBN/RING1B in human K562 cells assessed as degradation of RING1B protein expression at 10 uM incubated for 20 hrs in presence of MLN4924 by Western blotting analysis; type: cell-based
Target sequence in this assay (Q96SW2 whole entry): as the sequence (Q96SW2 whole entry) above
Target sequence in this assay (Q99496 2-336 partner limits assumed): as the sequence (Q99496 2-336 partner limits assumed) above

786-0 [4] = assay: Antiproliferative activity against human 786-0 cells assessed as inhibition of cell growth at 15 uM incubated for 7 days by WST-8 assay; type: functional, cell-based; settings: time 7.0 day
MDA-MB-468 [5] = assay: Induction of PRC1 degradation in human MDA-MB-468 cells assessed as reduction of H2AK119ub chromatin mark at 5 uM incubated for 24 hrs by Western blotting analysis; type: cell-based
786-0 [6] = assay: Antiproliferative activity against human 786-0 cells assessed as inhibition of cell growth at 30 uM incubated for 7 days by WST-8 assay; type: functional, cell-based; settings: time 7.0 day
[7] = molecular target: T1, Protein cereblon/E3 ubiquitin-protein ligase RING2; assay: PROTAC activity at CRBN/RING1B in human K562 cells assessed as degradation of RING1B mRNA expression at 10 uM incubated for 20 hrs by RT-qPCR analysis; type: cell-based
Target sequence in this assay (Q96SW2 whole entry): as the sequence (Q96SW2 whole entry) above
Target sequence in this assay (Q99496 2-336 partner limits assumed): as the sequence (Q99496 2-336 partner limits assumed) above

[8] = molecular target: T2, Protein cereblon/Polycomb complex protein BMI-1 (Homo sapiens, UniProt Q96SW2+P35226); assay: PROTAC activity at CRBN/BIM1 in human K562 cells assessed as degradation of BMI1 protein expression incubated for 24 hrs by Western blotting analysis; type: cell-based
K562 [9] = assay: Antiproliferative activity against human K562 cells assessed as fold increase in HoxD mRNA expression at 10 uM incubated for 24 hrs by RT-qPCR analysis; type: functional
PC-3M [10] = assay: Induction of PRC1 degradation in human PC-3M cells assessed as reduction of H2AK119ub chromatin mark at 1 uM incubated for 24 hrs by Western blotting analysis; type: cell-based
[11] = molecular target: T2, Protein cereblon/Polycomb complex protein BMI-1; assay: PROTAC activity at CRBN/BIM1 in human MDA-MB-468 cells assessed as degradation of BMI1 protein expression at 5 uM incubated for 24 hrs by Western blotting analysis; type: cell-based
Target sequence in this assay (P35226 whole entry, looked up): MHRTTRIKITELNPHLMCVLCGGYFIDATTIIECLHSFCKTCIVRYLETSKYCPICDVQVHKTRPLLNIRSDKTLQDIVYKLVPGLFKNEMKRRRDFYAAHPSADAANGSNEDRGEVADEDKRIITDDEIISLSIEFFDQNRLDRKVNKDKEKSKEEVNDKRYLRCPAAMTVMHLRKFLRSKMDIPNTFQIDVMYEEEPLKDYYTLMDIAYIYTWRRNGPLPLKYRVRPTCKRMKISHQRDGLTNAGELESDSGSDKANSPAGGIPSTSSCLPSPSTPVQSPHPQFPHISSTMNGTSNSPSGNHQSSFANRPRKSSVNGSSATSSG
Target sequence in this assay (Q96SW2 whole entry, looked up): as the sequence (Q96SW2 whole entry) above

Polycomb protein EED = Polycomb protein EED (Homo sapiens, UniProt O75530); assay: Binding affinity to EED (75 to 441 residues) (unknown origin) expressed in Escherichia coli BL21 (DE3) assessed as dissociation constant by isothermal titration calorimetry
Sequence of Polycomb protein EED (O75530 whole entry, the tested form may be a part): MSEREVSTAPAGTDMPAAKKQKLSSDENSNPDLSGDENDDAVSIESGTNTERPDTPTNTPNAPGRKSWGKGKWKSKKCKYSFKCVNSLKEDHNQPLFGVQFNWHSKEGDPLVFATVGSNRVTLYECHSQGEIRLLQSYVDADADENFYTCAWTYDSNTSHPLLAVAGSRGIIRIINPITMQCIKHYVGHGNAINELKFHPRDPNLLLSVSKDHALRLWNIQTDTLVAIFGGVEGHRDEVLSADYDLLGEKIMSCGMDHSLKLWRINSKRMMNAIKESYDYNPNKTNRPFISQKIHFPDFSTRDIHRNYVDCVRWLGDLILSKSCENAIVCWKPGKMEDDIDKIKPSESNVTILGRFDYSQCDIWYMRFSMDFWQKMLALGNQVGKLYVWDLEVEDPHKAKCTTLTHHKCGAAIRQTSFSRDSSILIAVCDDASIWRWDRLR

786-0 [12] = assay: Induction of PRC2 degradation in human 786-0 cells with defective VHL assessed as reduction of H3K27me3 chromatin mark at 10 uM incubated for 24 hrs by Western blotting analysis; type: cell-based
K562 [13] = assay: Antiproliferative activity against human K562 cells assessed as fold increase in HoxA mRNA expression at 10 uM incubated for 24 hrs by RT-qPCR analysis; type: functional
[14] = molecular target: T1, Protein cereblon/E3 ubiquitin-protein ligase RING2; assay: PROTAC activity at CRBN/RING1B in human K562 cells assessed as degradation of RING1B protein expression at 10 uM incubated for 20 hrs in presence of MG132 by Western blotting analysis; type: cell-based
Target sequence in this assay (Q96SW2 whole entry): as the sequence (Q96SW2 whole entry) above
Target sequence in this assay (Q99496 2-336 partner limits assumed): as the sequence (Q99496 2-336 partner limits assumed) above

[15] = molecular target: T1, Protein cereblon/E3 ubiquitin-protein ligase RING2; assay: PROTAC activity at CRBN/RING1B in human K562 cells assessed as degradation of RING1B protein expression at 10 uM measured after 4 hrs by Western blotting analysis; type: cell-based
Target sequence in this assay (Q96SW2 whole entry): as the sequence (Q96SW2 whole entry) above
Target sequence in this assay (Q99496 2-336 partner limits assumed): as the sequence (Q99496 2-336 partner limits assumed) above

[16] = molecular target: Protein cereblon/Eukaryotic peptide chain release factor GTP-binding subunit ERF3A (Homo sapiens) (UniProt Q96SW2+P15170); assay: PROTAC activity at CRBN/GSPT1 in human K562 cells assessed as degradation of GSPT1 protein at 0.1 to 10 uM incubated for 4 hrs by Western blotting analysis; type: cell-based; settings: dose 0.1-10 µM
Sequence of Protein cereblon/Eukaryotic peptide chain release factor GTP-binding subunit ERF3A (Homo sapiens) (P15170 whole entry, looked up): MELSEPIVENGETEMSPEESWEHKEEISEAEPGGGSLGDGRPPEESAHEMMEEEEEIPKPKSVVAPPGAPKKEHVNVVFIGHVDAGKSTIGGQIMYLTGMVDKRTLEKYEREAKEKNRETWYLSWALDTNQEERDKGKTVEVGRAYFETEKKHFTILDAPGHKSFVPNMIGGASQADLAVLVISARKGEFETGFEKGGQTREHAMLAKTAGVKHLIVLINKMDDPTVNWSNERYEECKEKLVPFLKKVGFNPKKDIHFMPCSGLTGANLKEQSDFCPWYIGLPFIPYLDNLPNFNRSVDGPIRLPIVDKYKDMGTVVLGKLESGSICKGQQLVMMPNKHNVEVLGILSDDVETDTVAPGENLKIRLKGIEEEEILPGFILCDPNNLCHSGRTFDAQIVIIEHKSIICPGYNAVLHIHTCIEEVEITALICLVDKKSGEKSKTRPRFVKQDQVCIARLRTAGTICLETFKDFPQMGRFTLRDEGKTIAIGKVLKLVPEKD
Sequence of Protein cereblon/Eukaryotic peptide chain release factor GTP-binding subunit ERF3A (Homo sapiens) (Q96SW2 whole entry, looked up): as the sequence (Q96SW2 whole entry) above

K562 [17] = assay: Induction of PRC2 degradation in human K562 cells assessed as reduction of H3K27me3 chromatin mark at 0.1 to 10 uM incubated for 24 hrs by Western blotting analysis; type: cell-based; settings: dose 0.1-10 µM
[18] = molecular target: T1, Protein cereblon/E3 ubiquitin-protein ligase RING2; assay: PROTAC activity at CRBN/RING1B in human K562 cells assessed as degradation of RING1B protein expression at 10 uM measured after 12 hrs by Western blotting analysis relative to control; type: cell-based
PC-3M [19] = assay: Antiproliferative activity against human PC-3M cells assessed as inhibition of cell growth at 1 to 10 uM incubated for 5 days by WST-8 assay; type: functional, cell-based; settings: dose 1-10 µM, time 5.0 day
[20] = molecular target: Protein cereblon/Polycomb protein SUZ12 (Homo sapiens) (UniProt Q15022+Q96SW2); assay: PROTAC activity at CRBN/SUZ12 in human K562 cells assessed as degradation of SUZ12 protein expression at 0.1 to 10 uM incubated for 24 hrs by Western blotting analysis; type: cell-based; settings: dose 0.1-10 µM
[21] = molecular target: T3, Protein cereblon/Histone-lysine N-methyltransferase EZH2 (Homo sapiens) (UniProt Q15910+Q96SW2); assay: PROTAC activity at CRBN/EZH2 in human MDA-MB-468 cells assessed as degradation of EZH2 protein expression at 5 uM incubated for 24 hrs by Western blotting analysis; type: cell-based
T3 sequence (Q15910 whole entry, looked up): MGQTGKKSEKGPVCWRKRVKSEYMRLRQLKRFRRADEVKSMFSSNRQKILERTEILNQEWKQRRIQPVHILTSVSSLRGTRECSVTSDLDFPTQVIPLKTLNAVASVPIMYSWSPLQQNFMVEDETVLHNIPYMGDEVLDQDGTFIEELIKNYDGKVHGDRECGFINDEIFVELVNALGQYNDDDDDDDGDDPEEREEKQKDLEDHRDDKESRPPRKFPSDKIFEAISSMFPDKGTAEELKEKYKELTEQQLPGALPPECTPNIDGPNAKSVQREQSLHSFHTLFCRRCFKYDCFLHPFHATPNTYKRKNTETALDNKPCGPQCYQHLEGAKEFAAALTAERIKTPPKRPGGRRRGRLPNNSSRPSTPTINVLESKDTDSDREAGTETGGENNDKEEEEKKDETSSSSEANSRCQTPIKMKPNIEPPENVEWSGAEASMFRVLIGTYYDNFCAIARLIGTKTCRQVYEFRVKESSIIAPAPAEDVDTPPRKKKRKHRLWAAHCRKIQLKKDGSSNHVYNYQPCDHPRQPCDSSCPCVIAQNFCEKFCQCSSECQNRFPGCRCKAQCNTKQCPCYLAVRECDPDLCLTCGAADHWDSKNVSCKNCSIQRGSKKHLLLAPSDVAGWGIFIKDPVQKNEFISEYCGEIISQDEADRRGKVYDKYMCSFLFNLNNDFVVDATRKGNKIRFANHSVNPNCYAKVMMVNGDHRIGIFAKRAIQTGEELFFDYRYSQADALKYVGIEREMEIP
T3 sequence (Q96SW2 whole entry, looked up): as the sequence (Q96SW2 whole entry) above

[22] = molecular target: T3, Protein cereblon/Histone-lysine N-methyltransferase EZH2 (Homo sapiens); assay: PROTAC activity at CRBN/EZH2 in human PC-3M cells assessed as degradation of EZH2 protein expression at 0.2 to 5 uM incubated for 24 hrs by Western blotting analysis; type: cell-based; settings: dose 0.2-5 µM
[23] = molecular target: T2, Protein cereblon/Polycomb complex protein BMI-1; assay: PROTAC activity at […] in human K562 cells assessed as degradation of BMI1 protein expression at 10 uM incubated for 20 hrs in presence of EED226 by Western blotting analysis; type: cell-based
Target sequence in this assay (P35226 whole entry, looked up): as the sequence (P35226 whole entry, looked up) above
Target sequence in this assay (Q96SW2 whole entry, looked up): as the sequence (Q96SW2 whole entry) above

[24] = molecular target: T2, Protein cereblon/Polycomb complex protein BMI-1; assay: PROTAC activity at […] in human K562 cells assessed as degradation of BMI1 protein expression at 10 uM incubated for 20 hrs in presence of MLN4924 by Western blotting analysis; type: cell-based
Target sequence in this assay (P35226 whole entry, looked up): as the sequence (P35226 whole entry, looked up) above
Target sequence in this assay (Q96SW2 whole entry, looked up): as the sequence (Q96SW2 whole entry) above

[25] = molecular target: T1, Protein cereblon/E3 ubiquitin-protein ligase RING2; assay: PROTAC activity at CRBN/RING1B in human 786-0 cells with defective VHL assessed as degradation of RING1B protein expression at 10 uM incubated for 24 hrs by Western blotting analysis; type: cell-based
[26] = molecular target: T2, Protein cereblon/Polycomb complex protein BMI-1; assay: PROTAC activity at […] in human K562 cells assessed as degradation of BMI1 protein expression at 10 uM incubated for 20 hrs in presence of MG132 by Western blotting analysis; type: cell-based
Target sequence in this assay (P35226 whole entry, looked up): as the sequence (P35226 whole entry, looked up) above
Target sequence in this assay (Q96SW2 whole entry, looked up): as the sequence (Q96SW2 whole entry) above

[27] = molecular target: T1, Protein cereblon/E3 ubiquitin-protein ligase RING2; assay: PROTAC activity at CRBN/RING1B in human K562 cells assessed as degradation of RING1B protein expression incubated for 24 hrs by Western blotting analysis; type: cell-based
[28] = molecular target: T1, Protein cereblon/E3 ubiquitin-protein ligase RING2; assay: PROTAC activity at CRBN/RING1B in human PC-3M cells assessed as degradation of RING1B protein expression at 5 uM incubated for 24 hrs by Western blotting analysis; type: cell-based
MDA-MB-468 [29] = assay: Induction of PRC2 degradation in human MDA-MB-468 cells assessed as reduction of H3K27me3 chromatin mark at 5 uM incubated for 24 hrs by Western blotting analysis; type: cell-based

Activity [1]: inactive | Activity [2]: Active | Activity [3]: inactive | Activity [7]: inactive | DC50 [8]: 1.7 µM | Activity [11]: Active | Kd (Polycomb protein EED): 0.19 µM | Activity [14]: inactive | Activity [15]: Active | Activity [16]: inactive | Activity [18]: 100% | Activity [20]: Active | Activity [21]: inactive | Activity [22]: inactive | Activity [23]: inactive | Activity [24]: inactive | Activity [25]: Active | Activity [26]: inactive | DC50 [27]: 1.3 µM | Activity [28]: Active
Structure (SMILES): O=C(CNc1cccc2c1C(=O)N(C1CCC(=O)NC1=O)C2=O)NCCCCN1CCN(c2ccc(-c3cnc(NCc4ccco4)n4cnnc34)cc2)CC1 (stereo not given)
Activity (786-0 [4]): Active | Activity (MDA-MB-468 [5]): Active | Activity (786-0 [6]): Active | fold change (FC) (K562 [9]): 2.3 | Activity (PC-3M [10]): Active | Activity (786-0 [12]): inactive | fold change (FC) (K562 [13]): 3.1 | Activity (K562 [17]): Active | Activity (PC-3M [19]): Active | Activity (MDA-MB-468 [29]): inactive

From ChEMBL document CHEMBL5543147, “Discovery and Characterization of a Novel Cereblon-Recruiting PRC1 Bridged PROTAC Degrader” (J Med Chem, 2024)
